According to US20140107109A1, “AMINO-DIHYDROTHIAZINE AND AMINO-DIOXIDO DIHYDROTHIAZINE COMPOUNDS AS BETA-SECRETASE ANTAGONISTS AND METHODS OF USE” (Amgen Inc., priority 2012, published 2014):
pIC50: −log10 of the molar value.

Tests used:
[1] = target: Beta Secretase enzyme (BACE1) (Homo sapiens, UniProt P56817); assay: In vitro enzymatic BACE FRET assay; type: biochemical; conditions: read-out: BACE1 FRET assay IC50
Outline: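 Readout: dequenched fluorescence (ex 488 nm/[…]) after neutralizing with Tris buffer. Reactions, begun by adding 50 nM quenched peptide substrate spanning the BACE cleavage site, were incubated one hour at pH 4.2 in 0.05 M acetate with 100 uM genapol and 10% final DMSO.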

[2] = test system: Aβ40 in conditioned medium of cells stably expressing Amyloid Precursor Protein (APP); assay: In vitro BACE cell-based assay (HEK cell assay), Aβ40 sandwich ELISA; conditions: Homo sapiens, HEK293
Outline: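 Aβ40 in conditioned medium was quantified by time-resolved fluorescence sandwich ELISA (pAb40 capture 3 h at 4 °C, biotin-6E10 detection 2 h at 4 °C) after 24 h compound exposure of APP-expressing cells. Doses spanned 10 points from 100 μM or 10 μM top, 0.1% DMSO; IC50 was derived from percent of control.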

[3] = target: T1, Cathepsin D (Cat D) (Homo sapiens, UniProt P07339); assay: In vitro enzymatic Cathepsin D (Cat D) FRET assay; type: biochemical; conditions: read-out: CatD IC50
T1 construct: Recombinant Cat D was expressed in CHO cells; made in house; host or cells: CHO cells
Outline: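 FRET read-out: a fluorophore/quencher-labelled peptide substrate is cleaved by 9 nM Cat D (recombinant, CHO-expressed) following a one-hour preincubation with inhibitor dilutions in DMSO. Tris buffer added to neutralize pH ends the reaction before fluorescence measurement.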

T1 sequence (P07339 65-412, species assumed): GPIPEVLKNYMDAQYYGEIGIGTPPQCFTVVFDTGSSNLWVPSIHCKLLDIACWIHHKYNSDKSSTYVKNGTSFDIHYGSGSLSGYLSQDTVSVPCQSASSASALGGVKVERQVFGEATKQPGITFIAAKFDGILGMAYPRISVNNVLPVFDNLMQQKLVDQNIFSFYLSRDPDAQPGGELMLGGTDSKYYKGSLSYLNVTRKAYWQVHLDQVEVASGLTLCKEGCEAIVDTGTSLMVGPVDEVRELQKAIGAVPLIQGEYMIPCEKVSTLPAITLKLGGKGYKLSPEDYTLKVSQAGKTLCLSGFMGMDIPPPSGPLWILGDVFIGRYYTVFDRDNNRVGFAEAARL
Sequence of Beta Secretase enzyme (BACE1) (P56817 46-501): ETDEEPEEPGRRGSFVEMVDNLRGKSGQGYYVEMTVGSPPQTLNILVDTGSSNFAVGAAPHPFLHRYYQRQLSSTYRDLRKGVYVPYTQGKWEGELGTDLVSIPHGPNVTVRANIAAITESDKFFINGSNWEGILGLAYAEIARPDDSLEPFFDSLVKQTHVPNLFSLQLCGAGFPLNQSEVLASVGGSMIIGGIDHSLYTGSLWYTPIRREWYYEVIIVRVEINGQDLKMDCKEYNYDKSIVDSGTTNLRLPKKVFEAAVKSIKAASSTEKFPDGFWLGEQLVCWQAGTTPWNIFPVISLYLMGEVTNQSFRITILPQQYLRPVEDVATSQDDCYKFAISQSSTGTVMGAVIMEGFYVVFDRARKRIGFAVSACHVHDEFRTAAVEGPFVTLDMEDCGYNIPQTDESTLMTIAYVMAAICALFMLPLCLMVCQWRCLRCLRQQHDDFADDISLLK

SMILES | pIC50 [1] | pIC50 [2] | pIC50 [3]
CC1(C)C(N)=N[C@](C)(c2cc(NC(=O)c3ccc(C(F)F)cn3)cnc2F)CS1(=O)=O [Example 404, N-(5-((3R)-5-amino-3,6,6-trimethyl-1,1-dioxido-3,6-dihydro-2H-1,4-thiazin-3-yl)-6-fluoro-3-pyridinyl)-5-(difluoromethyl)-2-pyridinecarboxamide] | 7.96 | 7.92 | 3.61
CC1(C)C(N)=N[C@](CF)(c2cc(NC(=O)c3cnc(OCC(F)(F)F)cn3)ccc2F)CS1(=O)=O [Example 405, N-(3-((3S)-5-amino-3-(fluoromethyl)-6,6-dimethyl-1,1-dioxido-3,6-dihydro-2H-1,4-thiazin-3-yl)-4-fluorophenyl)-5-(2,2,2-trifluoroethoxy)-2-pyrazinecarboxamide] | 9.22 | 7.57 | 3.24
CC1(C)C(N)=N[C@](CF)(c2cc(NC(=O)c3ccc(C#N)cn3)ccc2F)CS1(=O)=O [Example 406, N-(3-((3S)-5-amino-3-(fluoromethyl)-6,6-dimethyl-1,1-dioxido-3,6-dihydro-2H-1,4-thiazin-3-yl)-4-fluorophenyl)-5-cyano-2-pyridinecarboxamide] | 9.27 | 7.84 | < 3.40
C=C(C)c1cc(Cl)cnc1C(=O)Nc1ccc(F)c([C@]2(CF)CS(=O)(=O)C(C)(C)C(N)=N2)c1 [Example 407, N-(3-((3S)-5-amino-3-(fluoromethyl)-6,6-dimethyl-1,1-dioxido-3,6-dihydro-2H-1,4-thiazin-3-yl)-4-fluorophenyl)-5-chloro-3-(1-methylethenyl)-2-pyridinecarboxamide] | 8.45 | 7.24 | 3.36
Cc1cc(Cl)cnc1C(=O)Nc1ccc(F)c([C@]2(CF)CS(=O)(=O)C(C)(C)C(N)=N2)c1 [Example 408, N-(3-((3S)-5-amino-3-(fluoromethyl)-6,6-dimethyl-1,1-dioxido-3,6-dihydro-2H-1,4-thiazin-3-yl)-4-fluorophenyl)-5-chloro-3-methyl-2-pyridinecarboxamide] | 9.40 | 7.63 | 3.87
CC1(C)C(N)=N[C@](CF)(c2cc(NC(=O)c3ncc(Cl)cc3F)ccc2F)CS1(=O)=O [Example 409, N-(3-((3S)-5-amino-3-(fluoromethyl)-6,6-dimethyl-1,1-dioxido-3,6-dihydro-2H-1,4-thiazin-3-yl)-4-fluorophenyl)-5-chloro-3-fluoro-2-pyridinecarboxamide] | 9.22 | 8.43 | 3.44
Cc1cc(OC(F)F)cnc1C(=O)Nc1ccc(F)c([C@@]2(CF)CS(=O)(=O)C3(CCC3)C(N)=N2)c1 [Example 411, N-(3-((7R)-9-amino-7-(fluoromethyl)-5,5-dioxido-5-thia-8-azaspiro[3.5]non-8-en-7-yl)-4-fluorophenyl)-5-(difluoromethoxy)-3-methyl-2-pyridinecarboxamide] | 5.45 | < 4.81 | 3.29
Cc1cc(OC(F)F)cnc1C(=O)Nc1ccc(F)c([C@]2(CF)CS(=O)(=O)C3(CCC3)C(N)=N2)c1 [Example 412, N-(3-((7S)-9-amino-7-(fluoromethyl)-5,5-dioxido-5-thia-8-azaspiro[3.5]non-8-en-7-yl)-4-fluorophenyl)-5-(difluoromethoxy)-3-methyl-2-pyridinecarboxamide] | 9.20 | 8.09 | 4.10
CC1(C)C(N)=N[C@](C)(c2cc(Nc3ccc4c(c3)OC(F)(F)O4)cnc2F)CS1(=O)=O [Example 414, (5R)-5-(5-((2,2-difluoro-1,3-benzodioxol-5-yl)amino)-2-fluoro-3-pyridinyl)-2,2,5-trimethyl-5,6-dihydro-2H-1,4-thiazin-3-amine 1,1-dioxide] | 5.49 | 5.60 | 4.47
C[C@@]1(c2cc(N)cnc2F)CS(=O)(=O)C2(CCC2)C(N)=N1 [Example 415, (7R)-7-(5-amino-2-fluoro-3-pyridinyl)-7-methyl-5-thia-8-azaspiro[3.5]non-8-en-9-amine 5,5-dioxide] | 4.84 | < 4.81 | 3.98
